Experimental data: ChEMBL document CHEMBL1671662, “In vitro activities of telavancin and six comparator agents against anaerobic bacterial isolates” (2009)
Converted amounts (≈) assume the structure as drawn.

What was measured:
Format in all cases: functional
[1] = system: Peptostreptococcus anaerobius; test: Antibacterial activity against Peptostreptococcus anaerobius by CLSI M11-A6 agar dilution method
Clostridium tertium = test: Antibacterial activity against Clostridium tertium by CLSI M11-A6 agar dilution method
[2] = system: Paeniclostridium sordellii; test: Antibacterial activity against Clostridium sordellii by CLSI M11-A6 agar dilution method; details: Paraclostridium sordellii
Prevotella corporis = test: Antibacterial activity against Prevotella corporis by CLSI M11-A6 agar dilution method
[3] = system: Streptococcus constellatus; test: Antibacterial activity against Streptococcus constellatus by CLSI M11-A6 agar dilution method
[4] = system: Streptococcus intermedius; test: Antibacterial activity against Streptococcus intermedius by CLSI M11-A6 agar dilution method
Ruminococcus torques = test: Antibacterial activity against Ruminococcus torques by CLSI M11-A6 agar dilution method; details: Mediterraneibacter torques
Clostridium leptum = test: Antibacterial activity against Clostridium leptum by CLSI M11-A6 agar dilution method
Parabacteroides merdae = test: Antibacterial activity against Parabacteroides merdae by CLSI M11-A6 agar dilution method
[5] = system: Peptoniphilus asaccharolyticus; test: Antibacterial activity against Peptoniphilus asaccharolyticus by CLSI M11-A6 agar dilution method
Bifidobacterium breve = test: Antibacterial activity against Bifidobacterium breve by CLSI M11-A6 agar dilution method
[6] = system: Bacteroides thetaiotaomicron; test: Antibacterial activity against Bacteroides thetaiotaomicron by CLSI M11-A6 agar dilution method
Anaerococcus tetradius = test: Antibacterial activity against Anaerococcus tetradius by CLSI M11-A6 agar dilution method
Bifidobacterium dentium = test: Antibacterial activity against Bifidobacterium dentium by CLSI M11-A6 agar dilution method
Bilophila wadsworthia = test: Antibacterial activity against Bilophila wadsworthia by CLSI M11-A6 agar dilution method
Prevotella intermedia = test: Antibacterial activity against Prevotella intermedia by CLSI M11-A6 agar dilution method
Parvimonas micra = test: Antibacterial activity against Peptostreptococcus micros by CLSI M11-A6 agar dilution method
Bifidobacterium bifidum = test: Antibacterial activity against Bifidobacterium bifidum by CLSI M11-A6 agar dilution method
Clostridium beijerinckii = test: Antibacterial activity against Clostridium beijerinckii by CLSI M11-A6 agar dilution method
Prevotella buccae = test: Antibacterial activity against Prevotella buccae by CLSI M11-A6 agar dilution method; details: Segatella buccae
Ruminococcus sp. = test: Antibacterial activity against Ruminococcus sp. by CLSI M11-A6 agar dilution method
Bifidobacterium longum = test: Antibacterial activity against Bifidobacterium longum by CLSI M11-A6 agar dilution method
[7] = system: Paraclostridium bifermentans; test: Antibacterial activity against Clostridium bifermentans by CLSI M11-A6 agar dilution method
[8] = system: Catenibacterium mitsuokai; test: Antibacterial activity against Catenibacterium mitsuokai by CLSI M11-A6 agar dilution method
Clostridium spiroforme = test: Antibacterial activity against Clostridium spiroforme by CLSI M11-A6 agar dilution method; details: Thomasclavelia spiroformis
Ruminococcus lactaris = test: Antibacterial activity against Ruminococcus lactaris by CLSI M11-A6 agar dilution method
[9] = system: Propionibacterium propionicum; test: Antibacterial activity against Propionibacterium propionicus by CLSI M11-A6 agar dilution method; details: Arachnia propionica
Clostridium bartlettii = test: Antibacterial activity against Clostridium bartlettii by CLSI M11-A6 agar dilution method; details: Intestinibacter bartlettii
Clostridium glycolicum = test: Antibacterial activity against Clostridium glycolicum by CLSI M11-A6 agar dilution method; details: Terrisporobacter glycolicus
[10] = system: Prevotella melaninogenica; test: Antibacterial activity against Prevotella melaninogenica by CLSI M11-A6 agar dilution method
Bacteroides fragilis = test: Antibacterial activity against Bacteroides fragilis by CLSI M11-A6 agar dilution method
[11] = system: Enterocloster clostridioformis; test: Antibacterial activity against Clostridium clostridioforme by CLSI M11-A6 agar dilution method
Phocaeicola vulgatus = test: Antibacterial activity against Bacteroides vulgatus by CLSI M11-A6 agar dilution method
Prevotella disiens = test: Antibacterial activity against Prevotella P disiens by CLSI M11-A6 agar dilution method
Clostridium scindens = test: Antibacterial activity against Clostridium scindens by CLSI M11-A6 agar dilution method
Clostridium perfringens = test: Antibacterial activity against Clostridium perfringens by CLSI M11-A6 agar dilution method
[12] = system: Ruminococcus flavefaciens; test: Antibacterial activity against Ruminococcus flavefaciens by CLSI M11-A6 agar dilution method
Clostridium butyricum = test: Antibacterial activity against Clostridium butyricum by CLSI M11-A6 agar dilution method
[Clostridium] innocuum = Antibacterial activity against Clostridium innocuum by CLSI M11-A6 agar dilution method
[13] = system: Clostridium celerecrescens; test: Antibacterial activity against Clostridium celerecrescens by CLSI M11-A6 agar dilution method; details: Lacrimispora celerecrescens
Ruminococcus gnavus = test: Antibacterial activity against Ruminococcus gnavus by CLSI M11-A6 agar dilution method; details: Mediterraneibacter gnavus
Flavonifractor plautii = test: Antibacterial activity against Clostridium orbiscindens by CLSI M11-A6 agar dilution method
Odoribacter splanchnicus = test: Antibacterial activity against Bacteroides splanchnicus by CLSI M11-A6 agar dilution method

## CC(=O)NC[C@H]1CN(c2ccc(N3CCOCC3)c(F)c2)C(=O)O1 [LINEZOLID]
[1]
  MIC50: 1 µg/mL (≈ 2.96 µM)
  MIC90: 2 µg/mL (≈ 5.93 µM)
Clostridium tertium
  MIC50: 2 µg/mL (≈ 5.93 µM)
  MIC90: 4 µg/mL (≈ 11.9 µM)
[2]
  MIC50: 2 µg/mL (≈ 5.93 µM)
  MIC90: 4 µg/mL (≈ 11.9 µM)
Prevotella corporis
  MIC50: 2 µg/mL (≈ 5.93 µM)
  MIC90: 2 µg/mL (≈ 5.93 µM)
[3]
  MIC50: 2 µg/mL (≈ 5.93 µM)
  MIC90: 4 µg/mL (≈ 11.9 µM)
[4]
  MIC50: 2 µg/mL (≈ 5.93 µM)
  MIC90: 4 µg/mL (≈ 11.9 µM)
Ruminococcus torques
  MIC50: 2 µg/mL (≈ 5.93 µM)
  MIC90: 4 µg/mL (≈ 11.9 µM)
Clostridium leptum
  MIC50: 2 µg/mL (≈ 5.93 µM)
  MIC90: 4 µg/mL (≈ 11.9 µM)
Parabacteroides merdae
  MIC50: 4 µg/mL (≈ 11.9 µM)
  MIC90: 4 µg/mL (≈ 11.9 µM)
[5]
  MIC50: 1 µg/mL (≈ 2.96 µM)
  MIC90: 2 µg/mL (≈ 5.93 µM)
Bifidobacterium breve
  MIC50: 1 µg/mL (≈ 2.96 µM)
  MIC90: 8 µg/mL (≈ 23.7 µM)
[6]
  MIC50: 4 µg/mL (≈ 11.9 µM)
  MIC90: 8 µg/mL (≈ 23.7 µM)
Anaerococcus tetradius
  MIC50: 1 µg/mL (≈ 2.96 µM)
  MIC90: 2 µg/mL (≈ 5.93 µM)
Bifidobacterium dentium
  MIC50: 1 µg/mL (≈ 2.96 µM)
  MIC90: 8 µg/mL (≈ 23.7 µM)
Bilophila wadsworthia
  MIC50: 4 µg/mL (≈ 11.9 µM)
  MIC90: 16 µg/mL (≈ 47.4 µM)
Prevotella intermedia
  MIC50: 2 µg/mL (≈ 5.93 µM)
  MIC90: 2 µg/mL (≈ 5.93 µM)
Parvimonas micra
  MIC50: 1 µg/mL (≈ 2.96 µM)
  MIC90: 2 µg/mL (≈ 5.93 µM)
Bifidobacterium bifidum
  MIC50: 1 µg/mL (≈ 2.96 µM)
  MIC90: 8 µg/mL (≈ 23.7 µM)
Clostridium beijerinckii
  MIC50: 2 µg/mL (≈ 5.93 µM)
  MIC90: 4 µg/mL (≈ 11.9 µM)
Prevotella buccae
  MIC50: 2 µg/mL (≈ 5.93 µM)
  MIC90: 2 µg/mL (≈ 5.93 µM)
Ruminococcus sp.
  MIC50: 1 µg/mL (≈ 2.96 µM)
  MIC90: 2 µg/mL (≈ 5.93 µM)
Bifidobacterium longum
  MIC50: 1 µg/mL (≈ 2.96 µM)
  MIC90: 8 µg/mL (≈ 23.7 µM)
[7]
  MIC50: 2 µg/mL (≈ 5.93 µM)
  MIC90: 4 µg/mL (≈ 11.9 µM)
[8]
  MIC50: 1 µg/mL (≈ 2.96 µM)
  MIC90: 8 µg/mL (≈ 23.7 µM)
Clostridium spiroforme
  MIC50: 2 µg/mL (≈ 5.93 µM)
  MIC90: 4 µg/mL (≈ 11.9 µM)
Ruminococcus lactaris
  MIC50: 2 µg/mL (≈ 5.93 µM)
  MIC90: 4 µg/mL (≈ 11.9 µM)
[9]
  MIC50: 1 µg/mL (≈ 2.96 µM)
  MIC90: 8 µg/mL (≈ 23.7 µM)
Clostridium bartlettii
  MIC50: 2 µg/mL (≈ 5.93 µM)
  MIC90: 4 µg/mL (≈ 11.9 µM)
Clostridium glycolicum
  MIC50: 2 µg/mL (≈ 5.93 µM)
  MIC90: 4 µg/mL (≈ 11.9 µM)
[10]
  MIC50: 2 µg/mL (≈ 5.93 µM)
  MIC90: 2 µg/mL (≈ 5.93 µM)
Bacteroides fragilis
  MIC: 4 µg/mL (≈ 11.9 µM)
  MIC50: 4 µg/mL (≈ 11.9 µM)
  MIC90: 8 µg/mL (≈ 23.7 µM)
[11]
  MIC50: 4 µg/mL (≈ 11.9 µM)
  MIC90: 4 µg/mL (≈ 11.9 µM)
Phocaeicola vulgatus
  MIC50: 2 µg/mL (≈ 5.93 µM)
  MIC90: 4 µg/mL (≈ 11.9 µM)
Prevotella disiens
  MIC50: 2 µg/mL (≈ 5.93 µM)
  MIC90: 2 µg/mL (≈ 5.93 µM)
Clostridium scindens
  MIC50: 2 µg/mL (≈ 5.93 µM)
  MIC90: 4 µg/mL (≈ 11.9 µM)
Clostridium perfringens
  MIC50: 2 µg/mL (≈ 5.93 µM)
  MIC90: 2 µg/mL (≈ 5.93 µM)
[12]
  MIC50: 2 µg/mL (≈ 5.93 µM)
  MIC90: 4 µg/mL (≈ 11.9 µM)
Clostridium butyricum
  MIC50: 2 µg/mL (≈ 5.93 µM)
  MIC90: 4 µg/mL (≈ 11.9 µM)
[Clostridium] innocuum
  MIC: 2 µg/mL (≈ 5.93 µM)
  MIC50: 2 µg/mL (≈ 5.93 µM)
  MIC90: 4 µg/mL (≈ 11.9 µM)
[13]
  MIC50: 2 µg/mL (≈ 5.93 µM)
  MIC90: 4 µg/mL (≈ 11.9 µM)
Ruminococcus gnavus
  MIC50: 2 µg/mL (≈ 5.93 µM)
  MIC90: 2 µg/mL (≈ 5.93 µM)
Flavonifractor plautii
  MIC50: 2 µg/mL (≈ 5.93 µM)
  MIC90: 4 µg/mL (≈ 11.9 µM)
Odoribacter splanchnicus
  MIC: 2 µg/mL (≈ 5.93 µM)
  MIC50: 2 µg/mL (≈ 5.93 µM)
  MIC90: 4 µg/mL (≈ 11.9 µM)
